Test results published in US20250213536A1, “DETECTING AND TREATING GROWTH HORMONE DEFICIENCY” (Lumos Pharma, Inc., priority 2015, published 2025).
“Also recorded” adds a separate entry of the source. Counter-ions that a name gives are not always drawn.

Columns and labels:
[1] = system: GHD children; conditions: cited from earlier work
[2] = system: GHD children; assay: Phase IIb therapeutic study in pediatric GH deficiency: height velocity after 6 months of treatment; format: in vivo, human; conditions: for Delta Height Velocity, Biological Age (BA) / Delta Height Velocity, Chronological Age (CA): general population of GHD children; for height velocity in the LOW group compared with the EQUAL group, in words: 6 months of treatment; for growth (height velocity) response, GH compared with MK-0677, in words: 6 months
Method: In the Phase IIb study, 24 children were treated with 0.8 mg/kg/d MK-0677. […] This can also be expressed as a height velocity standard deviation (SD) (or standard deviations-also SD) at baseline of 0.4±2.1 and 3.5±2.0 at 6 months. […] Change in height velocity SD for chronological age was 0.4±2.1 for placebo and 3.5±2.0 for treatment with MK-0677 after 6 months at a dose of 0.8 mg/kg/d. Twenty of the 22 placebo-treated children were then treated with standard Growth Hormone (GH) treatment (daily subcutaneous injection of rhGH, 0.043 mg/kg/day). […] Therapeutic Study in Pediatric GH Deficiency: A Phase IIb study was run to determine whether or not MK-0677 could be used to treat pediatric GHD. MK-0677 was compared against placebo and rhGH injections according to the following protocol. Bone age was determined using the atlas matching method of Greulich and Pyle. Protocol: 6 months of once-daily oral sucrose formulation solution. Tables 6A-6E show the height velocity for EQUAL growth potential children treated with either 0.8 mg/kg/daily po or 0.4 mg/kg/daily po MK-0677 compared with rhGH (0.3 mg/kg/week; ˜42 μg/kg/daily sc injection). […] Values are mean (SD). Tables 7A-7C compare the height velocity for low growth potential patients (LOW) with equivalent growth potential compared to rhGH (EQUAL). Values are mean (SD).

[3] = system: hypothalamic-pituitary GH axis; assay: MK-0677 challenge test: peak serum GH after a single oral dose of MK-0677; format: in vivo, human; conditions: for Peak GH response to MK-0677: baseline; for Peak GH to MK-0677: single dose 0.8 mg/kg
Method: Testing for GH secretion with MK-0677: A single, oral dose of MK-0677 is administered to a patient and sufficient blood samples are taken prior to and after administration (e.g., 15 minutes before and t=0, 30, 60, 90, and 120 minutes after administration) to measure the peak GH secretion. An example of the amount of MK-0677 administered is 0.8 mg/kg. In an aspect, the patient being tested will have fasted overnight (abstinence from all food and drink but water). [table] Subjects will report to the clinic in the morning after an overnight fast from all food and drink except water. A catheter will be inserted approximately 1 hour before the administration of MK 0677. Two baseline measures will be taken a t=−15 minutes and t=0 minutes (time at which subject is administered the dose). Subjects will be given a dose of 0.8 mg/kg MK-0677 as 2-mg tablets to be taken orally. Blood samples will be taken subsequently at t=30, 60, 90, 120 minutes. In addition at t=−15 and 120 minutes, samples will be drawn for a serum chemistry panel. At the conclusion of the test, the catheter will be removed. All blood samples will be analyzed for GH, prolactin, and cortisol by a core clinical laboratory.

[4] = Adequate GH Secretion Potential, MK-0677 0.8 mg/kg/d (N = 15)
[5] = Low GH Secretion Potential, MK-0677 0.8 mg/kg/d (N = 9)
[6] = Adequate GH Secretion Potential, GH 0.3 mg/kg/wk (N = 15)
[7] = GH after placebo 0.3 mg/kg/week (n = 20)
[8] = Low GH Secretion Potential, GH 0.3 mg/kg/wk (N = 5)

CC(C)(N)C(=O)N[C@H](COCc1ccccc1)C(=O)N1CCC2(CC1)CN(S(C)(=O)=O)c1ccccc12 [MK-0677, Ibutamoren mesylate]
growth rate at 6 months ([1]; MK-0677 0.8 mg/kg/d, 24 children, Merck Phase IIb study): 6.8±2.0 cm/y
Change in height velocity SD for chronological age ([1]; MK-0677 0.8 mg/kg/d, after 6 months): 3.5±2.0
change in growth rate ([1]; MK-0677 0.8 mg/kg/d, baseline to 6 months, 24 children): 3.4±2.1 cm/y
Delta Height Velocity, Biological Age (BA) ([2]; 0.4 mg/kg/d (n = 22)): 2.6 (1.5) standard deviations
Delta Height Velocity, Chronological Age (CA) ([2]; 0.4 mg/kg/d (n = 22)): 2.6 (1.7) standard deviations
Delta Height Velocity, Biological Age (BA) ([2]; 0.8 mg/kg/d (n = 22)): 3.3 (1.8) standard deviations
Delta Height Velocity, Chronological Age (CA) ([2]; 0.8 mg/kg/d (n = 22)): 3.5 (2.0) standard deviations
height velocity in the LOW group compared with the EQUAL group, in words [2]: lower than with the EQUAL group
Delta height velocity [2, 4]: 3.4 (1.4) cm/year
Height velocity SD for BA [2, 4]: 3.8 (1.3)
Height velocity SD for CA [2, 4]: 3.8 (1.7)
Height Velocity ([2]; EQUAL (N = 12), 6-Month MK 0.4 mg/kg/day): 6.2 (1.8)
Height Velocity ([2]; EQUAL (N = 14), 6-Month MK 0.8 mg/kg/day): 7.6 (1.3)
growth (height velocity) response, GH compared with MK-0677, in words ([2]; EQUAL patient group (peak GH ≥5 μg/L to MK-0677 and baseline IGF-I >30 μg/L)): equal to GH treatment; also recorded: does not differ significantly from that to GH; also recorded: equivalent growth response
Height Velocity ([2]; LOW (N = 10), 6-Month MK 0.4 mg/kg/day): 5.8 (2.1)
Height Velocity ([2]; LOW (N = 10), 6-Month MK 0.8 mg/kg/day): 5.8 (2.2)
Height Velocity ([2]; LOW and EQUAL combined, 6-Month MK 0.4 mg/kg/day (N = 22), mean (SD)): 6.0 (1.9)
Height Velocity ([2]; LOW and EQUAL combined, 6-Month MK 0.8 mg/kg/day (N = 24), mean (SD)): 6.9 (1.9)
growth (height velocity) response, GH compared with MK-0677, in words ([2]; LOW growth potential / severely GH deficient patients): inadequate growth response; also recorded: less responsive
Delta height velocity [2, 5]: 2.3 (2.0) cm/year
Height velocity SD for BA [2, 5]: 2.6 (2.4)
Height velocity SD for CA [2, 5]: 2.9 (2.5)
Height Velocity ([2]; equivalent growth potential, after 6 months of MK-677 0.8 mg/kg (N = 14)): 7.6 (1.3) cm/year
Height Velocity ([2]; low growth potential, after 6 months of MK-677 0.8 mg/kg (N = 10)): 5.8 (2.2) cm/year
growth response, GH compared with MK-0677, in words ([2]; patients with adequate GH secretion potential (Table 4B)): comparable with GH and was not statistically different
Peak GH response to MK-0677 ([3]; Adequate GH Secretion Potential, group later given Placebo followed by rhGH (N = 15)): 39.2 (28.8) μg/L
Peak GH response to MK-0677 ([3]; Adequate GH Secretion Potential, group later treated with MK-0677 0.8 mg/kg/d (N = 15)): 41.3 (27.8) μg/L
Peak GH response to MK-0677 ([3]; Low GH Secretion Potential, group later given Placebo followed by rhGH (N = 5)): 2.9 (0.6) μg/L
Peak GH response to MK-0677 ([3]; Low GH Secretion Potential, group later treated with MK-0677 0.8 mg/kg/d (N = 9)): 3.2 (1.3) μg/L
Peak GH response to MK-0677 ([3]; equivalent growth potential, Placebo group later switched to rhGH (N = 13)): 51.2 (25.3) μg/L
Peak GH response to MK-0677 ([3]; equivalent growth potential, group later treated with MK-0677 0.8 mg/kg (N = 14)): 43.7 (27.1) μg/L
Peak GH response to MK-0677 ([3]; low growth potential, Placebo group later switched to rhGH (N = 9)): 6.7 (5.9) μg/L
Peak GH response to MK-0677 ([3]; low growth potential, group later treated with MK-0677 0.8 mg/kg (N = 10)): 3.6 (1.7) μg/L
Peak GH to MK-0677 ([3]; All subjects (73)): 32 ± 3.5 µg/L
Peak GH to MK-0677 ([3]; High Potential (≥5 μg/L), 49 subjects): 43 ± 30 µg/L
Peak GH to MK-0677 ([3]; Low Potential (≤5 μg/L), 24 subjects): 3.0 ± 1.0 µg/L

rhGH: recombinant human growth hormone given as daily subcutaneous injection, standard GH therapy
height velocity SD score for chronological age ([1]; rhGH 0.043 mg/kg/day daily sc, 20 children after 6 months of placebo): 7.6±5.6
increase in height velocity SD, GH compared with MK-0677 ([1]; rhGH 0.043 mg/kg/day vs MK-0677 0.8 mg/kg/d): twice as high
height velocity in the LOW group compared with the EQUAL group, in words [2]: greater in the LOW group than in the EQUAL group
Delta height velocity [2, 6]: 4.9 (2.9) cm/year
Height velocity SD for BA [2, 6]: 4.9 (2.6)
Height velocity SD for CA [2, 6]: 5.1 (2.8)
Height Velocity ([2]; EQUAL (N = 11), 6-Month rhGH): 8.8 (1.8)
Delta Height Velocity, Biological Age (BA) [2, 7]: 6.2 (3.4) standard deviations
Delta Height Velocity, Chronological Age (CA) [2, 7]: 7.6 (5.6) standard deviations
Height Velocity ([2]; LOW (N = 9), 6-Month rhGH): 14.0 (4.1)
Height Velocity ([2]; LOW and EQUAL combined, 6-Month GH 0.3 mg/kg/week (N = 20), mean (SD)): 11.1 (4.0)
Height Velocity ([2]; LOW and EQUAL combined, GH (12-Month): 6 months rhGH after 6 months placebo (N = 20), paired T-test table): 11.14 (3.96)
growth (height velocity) response, GH compared with MK-0677, in words ([2]; LOW growth potential / severely GH deficient patients, listed as GH): extremely sensitive to GH; also recorded: increase in height velocity
Delta height velocity [2, 8]: 12.3 (4.4) cm/year
Height velocity SD for BA [2, 8]: 10.0 (2.2)
Height velocity SD for CA [2, 8]: 15.1 (5.1)
Height Velocity ([2]; equivalent growth potential, after 6 months of GH ~42 μg/kg/day (N = 11)): 8.8 (1.8) cm/year
Height Velocity ([2]; low growth potential, after 6 months of GH ~42 μg/kg/day (N = 9)): 14.0 (4.1) cm/year
growth (height velocity) response, GH compared with MK-0677, in words ([2]; overall patient group, GH 0.3 mg/kg/week sc vs MK-0677 0.8 mg/kg/day oral): superior to MK-0677
growth response, GH compared with MK-0677, in words ([2]; patients with low GH secretion potential (Table 3B)): superior
